How the values were obtained:
Conditions in all cases: in vivo
[1] = Cmax in HIV1 infected human at 100 mg, po administered twice daily; assay type: ADME, organism-based; set-up: dose 100 mg, route oral
[2] = Tmax in HIV1 infected human at 100 mg, po administered twice daily; assay type: ADME, organism-based
Homo sapiens [3] = test: Tlag in HIV1 infected human at 100 mg, po administered twice daily; assay type: ADME, organism-based
Homo sapiens [4] = test: AUC in HIV1 infected human at 100 mg, po administered twice daily; assay type: ADME, organism-based, Plasma
Homo sapiens [5] = test: CL/F in HIV1 infected human at 100 mg, po administered twice daily; assay type: ADME, organism-based
[6] = Apparent elimination half life in HIV1 infected human at 100 mg, po administered twice daily; assay type: ADME, organism-based
[7] = Apparent elimination half life in HIV1 infected human at 1000 mg, po administered twice daily; assay type: ADME, organism-based
Homo sapiens [8] = test: Tlag in HIV1 infected human at 1000 mg, po administered twice daily; assay type: ADME, organism-based
Homo sapiens [9] = test: AUC in HIV1 infected human at 1000 mg, po administered twice daily; assay type: ADME, organism-based, Plasma
[10] = Cmax in HIV1 infected human at 1000 mg, po administered twice daily; assay type: ADME, organism-based; set-up: dose 1000 mg, route oral
[11] = Tmax in HIV1 infected human at 1000 mg, po administered twice daily; assay type: ADME, organism-based

Row | Cmax [1] | Tmax [2] | Tlag (Homo sapiens [3]) | AUC (Homo sapiens [4]) | CL/F (Homo sapiens [5]) | half-life [6] | half-life [7] | Tlag (Homo sapiens [8]) | AUC (Homo sapiens [9]) | Cmax [10] | Tmax [11] | SMILES
1 | 880 ng/mL | 4 h | 0.25 h | 6399.9 ng·h/mL | 15.6 L/h | 4.3 h |  |  |  |  |  | CC(C)c1nc(CN(C)C(=O)N[C@H](C(=O)N[C@@H](Cc2ccccc2)C[C@H](O)[C@H](Cc2ccccc2)NC(=O)OCc2cncs2)C(C)C)cs1 [RITONAVIR]
2 |  |  |  |  |  |  | 3.7 h | 0 h | 17546.5 ng·h/mL | 2620 ng/mL | 4 h | CC(C)(C)NC(=O)[C@@H]1C[C@@H]2CCCC[C@@H]2CN1C[C@@H](O)[C@H](Cc1ccccc1)NC(=O)[C@H](CC(N)=O)NC(=O)c1ccc2ccccc2n1 [SAQUINAVIR]
